target: T1, human Keap1 kelch domain (amino acids Ala321-Thr609) (Homo sapiens, UniProt Q14145); assay: Keap1-Nrf2 peptide binding assay (fluorescence polarisation); conditions: binding to fluorescently labeled human Nrf2 peptide; 20 nM Keap1 kelch domain, 50 nM peptide
T1 construct: human Keap1 kelch domain (amino acids Ala321-Thr609)
Procedure: Keap1-Nrf2 peptide binding assay
Two microliters of test compound in reaction buffer (phosphate-buffered saline, 2 mM DL-dithiothreitol, 0.015 % (v/v) Brij-35) containing 6 % (v/v) DMSO were mixed with two microliters of the Keap1 kelch domain in reaction buffer in a black 384-well small volume microtiter plate and incubated at ambient temperature for 15 minutes. Thereafter, two microliters were added of the fluorescently labeled Nrf2 peptide in reaction buffer, and the mixture was incubated for a further 30 minutes at ambient temperature. Final concentrations of the Keap1 kelch domain and the fluorescently labeled Nrf2 peptide were 20 nM and 50 nM, respectively.
Fluorescence polarization (FP) was measured at excitation and emission wavelengths of 635 nm and 660 nm, respectively. Positive controls for binding (two microliters of reaction buffer containing 6 % (v/v) DMSO instead of test compound in the same buffer) and negative controls (as positive controls, but without Keap1 kelch domain) were included on each microtiter plate.

T1 sequence (Q14145 321-609): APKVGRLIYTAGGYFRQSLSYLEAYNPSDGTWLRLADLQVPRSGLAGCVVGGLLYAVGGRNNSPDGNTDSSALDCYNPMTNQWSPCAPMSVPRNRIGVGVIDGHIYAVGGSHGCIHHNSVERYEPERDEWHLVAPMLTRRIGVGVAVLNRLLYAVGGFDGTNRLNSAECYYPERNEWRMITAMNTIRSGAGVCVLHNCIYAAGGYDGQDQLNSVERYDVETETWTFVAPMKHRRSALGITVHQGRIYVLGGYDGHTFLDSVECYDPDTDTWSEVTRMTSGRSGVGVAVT

Row | Compound | IC50
1 | Cc1cc(C)c(C)c(S(=O)(=O)Nc2ccc(N3CCCC(C(=O)O)C3)c3ncccc23)c1C (stereo not drawn) [Example 15, 1-[5-[(2,3,5,6-tetramethylphenyl)sulfonylamino]-8-quinolyl]piperidine-3-carboxylic acid; 2,2,2-trifluoroacetic acid] | 24 µM
2 | O=C(O)[C@H]1CCN(c2ccc(NS(=O)(=O)c3cccc(Cl)c3Cl)c3ccccc23)C1 [Example 20, (3S)-1-[4-[(2,3-dichlorophenyl)sulfonylamino]-1-naphthyl]pyrrolidine-3-carboxylic acid] | 8.6 µM
3 | Cc1nn(C)c(C)c1S(=O)(=O)Nc1ccc(N2CC[C@H](C(=O)O)C2)c2ccccc12 [Example 22, (3S)-1-[4-[(1,3,5-trimethylpyrazol-4-yl)sulfonylamino]-1-naphthyl]pyrrolidine-3-carboxylic acid] | 4.5 µM
4 | O=C(O)[C@H]1CCN(c2ccc(NS(=O)(=O)c3ccc(Cl)c(C(F)(F)F)c3)c3ccccc23)C1 [Example 23, (3S)-1-[4-[[4-chloro-3-(trifluoromethyl)phenyl]sulfonylamino]-1-naphthyl]pyrrolidine-3-carboxylic acid] | 8.5 µM
5 | Cc1nc(C)c(S(=O)(=O)Nc2ccc(N3CC[C@H](C(=O)O)C3)c3ccccc23)s1 [Example 24, (3S)-1-[4-[(2,4-dimethylthiazol-5-yl)sulfonylamino]-1-naphthyl]pyrrolidine-3-carboxylic acid] | 4.3 µM
6 | Cc1nn(-c2ccccc2)c(C)c1S(=O)(=O)Nc1ccc(N2CC[C@H](C(=O)O)C2)c2ccccc12 [Example 25, (3S)-1-[4-[(3,5-dimethyl-1-phenyl-pyrazol-4-yl)sulfonylamino]-1-naphthyl]pyrrolidine-3-carboxylic acid] | 4.1 µM
7 | Cc1ccc(Cl)cc1S(=O)(=O)Nc1ccc(N2CC[C@H](C(=O)O)C2)c2ccccc12 [Example 26, (3S)-1-[4-[(5-chloro-2-methylphenyl)sulfonylamino]-1-naphthyl]pyrrolidine-3-carboxylic acid] | 8.1 µM
8 | O=C(O)[C@H]1CCN(c2ccc(NS(=O)(=O)c3cc(Cl)ccc3Cl)c3ccccc23)C1 [Example 28, (3S)-1-[4-[(2,5-dichlorophenyl)sulfonylamino]-1-naphthyl]pyrrolidine-3-carboxylic acid] | 5.8 µM
9 | Cc1nn(C)c(C)c1S(=O)(=O)Nc1ccc(N2CC[C@@H](C(=O)O)C2)c2ccccc12 [Example 38, (3R)-1-[4-[(1,3,5-trimethylpyrazol-4-yl)sulfonylamino]-1-naphthyl]pyrrolidine-3-carboxylic acid] | 0.9 µM
10 | Cc1nc(C)c(S(=O)(=O)Nc2ccc(N3CC[C@@H](C(=O)O)C3)c3ccccc23)s1 [Example 41, (3R)-1-[4-[(2,4-dimethylthiazol-5-yl)sulfonylamino]-1-naphthyl]pyrrolidine-3-carboxylic acid] | 1.6 µM
11 | Cc1nn(-c2ccccc2)c(C)c1S(=O)(=O)Nc1ccc(N2CC[C@@H](C(=O)O)C2)c2ccccc12 [Example 42, (3R)-1-[4-[(3,5-dimethyl-1-phenyl-pyrazol-4-yl)sulfonylamino]-1-naphthyl]pyrrolidine-3-carboxylic acid] | 3 µM

same assay, conditions: binding to fluorescently labeled human Nrf2 peptide; 20 nM Keap1 kelch domain, 50 nM peptide; read-out: IC50

Row | Compound | IC50
12 | Cc1cc(C)c(C)c(S(=O)(=O)Nc2ccc(C3CCCC3C(=O)O)c3ccccc23)c1C (stereo not drawn) [Example 1, 2-[4-[(2,3,5,6-tetramethylphenyl)sulfonylamino]-1-naphthyl]cyclopentanecarboxylic acid] | 3.1 µM
13 | Cc1nn(C)c(Cl)c1S(=O)(=O)Nc1ccc(N2CCC(C(=O)O)C2)c2ccccc12 (stereo not drawn) [Example 4, 1-[4-[(5-chloro-1,3-dimethyl-pyrazol-4-yl)sulfonylamino]-1-naphthyl]pyrrolidine-3-carboxylic acid] | 1.2 µM
14 | Cc1cc(C)c(C)c(S(=O)(=O)Nc2ccc(N3CCCC(C(=O)O)C3)c3ccccc23)c1C (stereo not drawn) [Example 5, 1-[4-[(2,3,5,6-tetramethylphenyl)sulfonylamino]-1-naphthyl]piperidine-3-carboxylic acid; 2,2,2-trifluoroacetic acid] | 0.5 µM
15 | Cc1cc(C)c(C)c(S(=O)(=O)Nc2ccc(N3CCC(C)(C(=O)O)C3)c3ccccc23)c1C (stereo not drawn) [Example 9, 3-methyl-1-[4-[(2,3,5,6-tetramethylphenyl)sulfonylamino]-1-naphthyl]pyrrolidine-3-carboxylic acid] | 0.8 µM
16 | Cc1nn(C)c(Cl)c1S(=O)(=O)Nc1ccc(N2CCC(C)(C(=O)O)C2)c2ccccc12 (stereo not drawn) [Example 10, 1-[4-[(5-chloro-1,3-dimethyl-pyrazol-4-yl)sulfonylamino]-1-naphthyl]-3-methyl-pyrrolidine-3-carboxylic acid] | 1 µM
17 | CCCCn1cc(S(=O)(=O)Nc2ccc(N3CC[C@H](C(=O)O)C3)c3ccccc23)c(C)n1 [Example 11, (3S)-1-[4-[(1-butyl-3-methyl-pyrazol-4-yl)sulfonylamino]-1-naphthyl]pyrrolidine-3-carboxylic acid] | 5 µM
18 | O=C(O)[C@@H]1CCN(c2ccc(NS(=O)(=O)c3ccc(Cl)cc3Cl)c3ccccc23)C1 [Example 12, (3R)-1-[4-[(2,4-dichlorophenyl)sulfonylamino]-1-naphthyl]pyrrolidine-3-carboxylic acid] | 1.3 µM
19 | CCCCn1cc(S(=O)(=O)Nc2ccc(N3CC[C@@H](C(=O)O)C3)c3ccccc23)c(C)n1 [Example 13, (3R)-1-[4-[(1-butyl-3-methyl-pyrazol-4-yl)sulfonylamino]-1-naphthyl]pyrrolidine-3-carboxylic acid] | 2.3 µM
20 | Cc1c(Cl)cccc1S(=O)(=O)Nc1ccc(N2CC[C@H](C(=O)O)C2)c2ccccc12 [Example 16, (3S)-1-[4-[(3-chloro-2-methylphenyl)sulfonylamino]-1-naphthyl]pyrrolidine-3-carboxylic acid] | 2.9 µM
21 | O=C(O)[C@H]1CCN(c2ccc(NS(=O)(=O)c3cc(Cl)cc(Cl)c3)c3ccccc23)C1 [Example 17, (3S)-1-[4-[(3,5-dichlorophenyl)sulfonylamino]-1-naphthyl]pyrrolidine-3-carboxylic acid] | 2.9 µM
22 | O=C(O)[C@H]1CCN(c2ccc(NS(=O)(=O)c3cc(Cl)sc3Cl)c3ccccc23)C1 [Example 18, (3S)-1-[4-[(2,5-dichloro-3-thienyl)sulfonylamino]-1-naphthyl]pyrrolidine-3-carboxylic acid] | 9 µM
23 | O=C(O)[C@H]1CCN(c2ccc(NS(=O)(=O)c3ccc(Cl)cc3Cl)c3ccccc23)C1 [Example 19, (3S)-1-[4-[(2,4-dichlorophenyl)sulfonylamino]-1-naphthyl]pyrrolidine-3-carboxylic acid] | 6.2 µM
24 | COc1ccc(F)c(S(=O)(=O)Nc2ccc(N3CC[C@H](C(=O)O)C3)c3ccccc23)c1 [Example 27, (3S)-1-[4-[(2-fluoro-5-methoxyphenyl)sulfonylamino]-1-naphthyl]pyrrolidine-3-carboxylic acid] | 7.1 µM
25 | Cc1c(S(=O)(=O)Nc2ccc(N3CC[C@H](C(=O)O)C3)c3ccccc23)cnn1CC(C)C [Example 29, (3S)-1-[4-[(1-isobutyl-5-methyl-pyrazol-4-yl)sulfonylamino]-1-naphthyl]pyrrolidine-3-carboxylic acid] | 7 µM
26 | Cc1c(S(=O)(=O)Nc2ccc(N3CC[C@H](C(=O)O)C3)c3ccccc23)cnn1C1CCCC1 [Example 30, (3S)-1-[4-[(1-cyclopentyl-5-methyl-pyrazol-4-yl)sulfonylamino]-1-naphthyl]pyrrolidine-3-carboxylic acid] | 4.1 µM
27 | CC(=O)Nc1nc(C)c(S(=O)(=O)Nc2ccc(N3CC[C@@H](C(=O)O)C3)c3ccccc23)s1 [Example 31, (3R)-1-[4-[(2-acetamido-4-methyl-thiazol-5-yl)sulfonylamino]-1-naphthyl]pyrrolidine-3-carboxylic acid] | 1.9 µM
28 | Cc1c(Cl)cccc1S(=O)(=O)Nc1ccc(N2CC[C@@H](C(=O)O)C2)c2ccccc12 [Example 32, (3R)-1-[4-[(3-chloro-2-methylphenyl)sulfonylamino]-1-naphthyl]pyrrolidine-3-carboxylic acid] | 0.8 µM
29 | O=C(O)[C@@H]1CCN(c2ccc(NS(=O)(=O)c3cc(Cl)cc(Cl)c3)c3ccccc23)C1 [Example 33, (3R)-1-[4-[(3,5-dichlorophenyl)sulfonylamino]-1-naphthyl]pyrrolidine-3-carboxylic acid] | 1.7 µM
30 | O=C(O)[C@@H]1CCN(c2ccc(NS(=O)(=O)c3cc(Cl)sc3Cl)c3ccccc23)C1 [Example 34, (3R)-1-[4-[(2,5-dichloro-3-thienyl)sulfonylamino]-1-naphthyl]pyrrolidine-3-carboxylic acid] | 2.9 µM
31 | O=C(O)[C@@H]1CCN(c2ccc(NS(=O)(=O)c3cccc(Cl)c3Cl)c3ccccc23)C1 [Example 35, (3R)-1-[4-[(2,3-dichlorophenyl)sulfonylamino]-1-naphthyl]pyrrolidine-3-carboxylic acid] | 1.8 µM
32 | Cc1c(S(=O)(=O)Nc2ccc(N3CC[C@@H](C(=O)O)C3)c3ccccc23)cnn1-c1ccccc1 [Example 39, (3R)-1-[4-[(5-methyl-1-phenyl-pyrazol-4-yl)sulfonylamino]-1-naphthyl]pyrrolidine-3-carboxylic acid] | 6.5 µM
33 | O=C(O)[C@@H]1CCN(c2ccc(NS(=O)(=O)c3ccc(Cl)c(C(F)(F)F)c3)c3ccccc23)C1 [Example 40, (3R)-1-[4-[[4-chloro-3-(trifluoromethyl)phenyl]sulfonylamino]-1-naphthyl]pyrrolidine-3-carboxylic acid] | 5 µM
